Results taken from PubChem BioAssay AID1919003 (Molecular Pharmacology Branch, DTP, NCI, 2023).
Where “and” joins values, the source holds several entries; their conditions need not be identical. Equal entries are not always repeated.

Test system: 786-0 complex spheroids with HUVEC/MSC, growth % test/control
Experiment: Anticancer human tumor 786-0 cell line growth inhibition [AhR];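 note: compound exposure lasted seven days before the read-out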
Conditions: for viability, T/C: stronger effect = lower value
Description: Multicellular complex tumor spheroid response to aryl hydrocarbon receptor antagonists in combination with a variety of drugs and investigational agents in selected tumor cell lines
The current study was undertaken to assess response to aryl hydrocarbon receptor antagonists in combination with standard-of-care drugs and investigational agents in solid tumor complex spheroid models. Complex spheroids include a stromal component modeled by human endothelial cells (HUVEC) and fibroblasts modeled by human mesenchymal stem cells (MSCs). The concentration ranges selected for each drug and investigational agent were based upon clinically achievable concentrations if the clinical Cmax of the agent was known.
Compounds. The drugs and investigational agents: BAY 2416964 (NSC825713), GNF351 (NSC835774), CH-223191 (NSC835775), CPI-455 (NSC825282), aza-TdCyd (NSC777586), decitabine (NSC127716), belinostat (NSC758774), entinostat (NSC756642), pevonedistat (NSC761192), tazemetostat (NSC777109), talazoparib (NSC765396), olaparib (NSC753686), selinexor (NSC780203), nedisertib (M3814, NSC802822), bortezomib (NSC756655), venetoclax (NSC766270), doxorubicin (NSC123127), elimusertib (BAY189344, NSC800525), ceralasertib (AZD6738, NSC777638), TAK-243 (NSC785004), alisertib (NSC759677), etoposide (NSC141540), topotecan (NSC609699), eribulin (NSC707389), gemcitabine (NSC613327), carboplatin (NSC241240), cisplatin (NSC119875), and SN-38 (NSC673596) were obtained from the National Cancer Institute (NCI) Developmental Therapeutics Program Chemical Repository (32). The FDA-approved anticancer drug set is available from the Developmental Therapeutics Program at https://dtp.cancer.gov/organization/dscb/obtaining/available plates.htm. […] The stock solutions were prepared in dimethyl sulfoxide (DMSO, Sigma-Aldrich, St. Louis, MO, cat. D2650), except for the platinum compounds which were prepared in saline (Quality Biological, Gaithersburg, MD, cat. 114-055-101), at 800-fold the tested concentration and stored at -70 degrees C prior to their use. All drugs and investigational agents were tested over a range starting from a high concentration at or near the clinical Cmax and decreasing in half-log increments. If the clinical Cmax for an agent had not been determined, the highest concentration tested was 10 microM (Table 1).
Cell Culture. All cells were maintained in an incubator at 37 degrees C and 5% CO2 with 95% humidity. The PDC lines were cultured according to standard operating procedures established by the NCI PDMR (https://pdmr.cancer.gov). Briefly, all PDCs were thawed and cultured in Matrigel-coated flasks prepared with a working solution of 1X Ham's F-12 nutrient mix, without supplementation (Invitrogen, Waltham, MA, cat. 11765054), 100 U/mL penicillin-streptomycin (Invitrogen, cat. 15140122), and 2.5% Matrigel (Corning Inc., Corning, NY, cat. 354248) for the first three passages. All PDCs were cultured in complete DMEM/F-12 media containing advanced DMEM/F-12 (Invitrogen, cat. 12634028), 4.9% defined fetal bovine serum, heat inactivated (HyClone Laboratories Inc., Logan, UT, cat. SH30070.03HI), 389 ng/mL hydrocortisone (Sigma-Aldrich, cat. H4001), 9.7 ng/mL human EGF recombinant protein (Invitrogen, cat. PHG0313), 23.4 microg/mL adenine (Sigma-Aldrich, cat. A2786), 97.3 U/mL penicillin-streptomycin (Invitrogen, cat. 15140122), 1.9 mM L-glutamine (Invitrogen, cat. 25030081), and 9.7 microM Y-27632 dihydrochloride (Tocris Bioscience, Bristol, United Kingdom, cat. 1254). The PDCs were cultured in complete DMEM/F12 media without 10 microM Y-27632 dihydrochloride for at least two passages prior to the screen. The established cell lines NCI-H1341 and […] were cultured in DMEM/F-12, HEPES (Invitrogen, cat. 11330032), 5% defined fetal bovine serum (HyClone Laboratories Inc., cat. SH30070.03), ITS premix universal culture supplement [insulin (5 microg/mL), transferrin (5 microg/mL), and selenious acid (5 ng/mL)] […]

[1] = curve of first compound, second compound 0.1 µM
[2] = curve of first compound, second compound 0.316 µM
[3] = curve of first compound, second compound 1 µM
[4] = curve of first compound, second compound 3.16 µM
[5] = curve of first compound, second compound 10 µM
[6] = second compound 0.1 µM, first compound 0.0316 µM
[7] = second compound 0.1 µM, first compound 0.1 µM
[8] = second compound 0.1 µM, first compound 0.316 µM
[9] = second compound 0.1 µM, first compound 1 µM
[10] = second compound 0.1 µM, first compound 3.16 µM
[11] = second compound 0.1 µM, first compound 10 µM
[12] = second compound 0.316 µM, first compound 0.0316 µM
[13] = second compound 0.316 µM, first compound 0.1 µM
[14] = second compound 0.316 µM, first compound 0.316 µM
[15] = second compound 0.316 µM, first compound 1 µM
[16] = second compound 0.316 µM, first compound 3.16 µM
[17] = second compound 0.316 µM, first compound 10 µM
[18] = second compound 1 µM, first compound 0.0316 µM
[19] = second compound 1 µM, first compound 0.1 µM
[20] = second compound 1 µM, first compound 0.316 µM
[21] = second compound 1 µM, first compound 1 µM
[22] = second compound 1 µM, first compound 3.16 µM
[23] = second compound 1 µM, first compound 10 µM
[24] = second compound 3.16 µM, first compound 0.0316 µM
[25] = second compound 3.16 µM, first compound 0.1 µM
[26] = second compound 3.16 µM, first compound 0.316 µM
[27] = second compound 3.16 µM, first compound 1 µM
[28] = second compound 3.16 µM, first compound 3.16 µM
[29] = second compound 3.16 µM, first compound 10 µM
[30] = second compound 10 µM, first compound 0.0316 µM
[31] = second compound 10 µM, first compound 0.1 µM
[32] = second compound 10 µM, first compound 0.316 µM
[33] = second compound 10 µM, first compound 1 µM
[34] = second compound 10 µM, first compound 3.16 µM
[35] = second compound 10 µM, first compound 10 µM

CCc1c2c(nc3ccc(O)cc13)-c1cc3c(c(=O)n1C2)COC(=O)[C@]3(O)CC + Cc1ccccc1N=Nc1ccc(NC(=O)c2ccnn2C)c(C)c1
IC50 [1]: 0.0061 µM | IC50 [2]: 0.00633 µM | IC50 [3]: 0.00639 µM | IC50 [4]: 0.0061 µM | IC50 [5]: 0.00518 µM | viability, T/C (second compound 0.1 µM, first compound 0.000949 µM): 106% | viability, T/C (second compound 0.1 µM, first compound 0.003 µM): 96.2% | viability, T/C (second compound 0.1 µM, first compound 0.00949 µM): 21.1% | viability, T/C (second compound 0.1 µM, first compound 0.03 µM): 9.38% | viability, T/C (second compound 0.1 µM, first compound 0.0949 µM): 3.43% | viability, T/C (second compound 0.1 µM, first compound 0.3 µM): 4.01% | viability, T/C (second compound 0.316 µM, first compound 0.000949 µM): 107% | viability, T/C (second compound 0.316 µM, first compound 0.003 µM): 106% | viability, T/C (second compound 0.316 µM, first compound 0.00949 µM): 19.7% | viability, T/C (second compound 0.316 µM, first compound 0.03 µM): 9.77% | viability, T/C (second compound 0.316 µM, first compound 0.0949 µM): 4.26% | viability, T/C (second compound 0.316 µM, first compound 0.3 µM): 3.54% | viability, T/C (second compound 1 µM, first compound 0.000949 µM): 101% | viability, T/C (second compound 1 µM, first compound 0.003 µM): 102% | viability, T/C (second compound 1 µM, first compound 0.00949 µM): 22.9% | viability, T/C (second compound 1 µM, first compound 0.03 µM): 10.2% | viability, T/C (second compound 1 µM, first compound 0.0949 µM): 4.47% | viability, T/C (second compound 1 µM, first compound 0.3 µM): 2.91% | viability, T/C (second compound 3.16 µM, first compound 0.000949 µM): 98.1% | viability, T/C (second compound 3.16 µM, first compound 0.003 µM): 95.6% | viability, T/C (second compound 3.16 µM, first compound 0.00949 µM): 21.6% | viability, T/C (second compound 3.16 µM, first compound 0.03 µM): 8.98% | viability, T/C (second compound 3.16 µM, first compound 0.0949 µM): 4.32% | viability, T/C (second compound 3.16 µM, first compound 0.3 µM): 3.54% | viability, T/C (second compound 10 µM, first compound 0.000949 µM): 89.7% | viability, T/C (second compound 10 µM, first compound 0.003 µM): 78.8% | viability, T/C (second compound 10 µM, first compound 0.00949 µM): 18.1% | viability, T/C (second compound 10 µM, first compound 0.03 µM): 8.91% | viability, T/C (second compound 10 µM, first compound 0.0949 µM): 4.41% | viability, T/C (second compound 10 µM, first compound 0.3 µM): 3.24%

O=C(c1cc(Cc2n[nH]c(=O)c3ccccc23)ccc1F)N1CCN(C(=O)C2CC2)CC1
viability, T/C (compound 0.0316 µM): 111% and 97.5% and 96.3% | viability, T/C (compound 0.1 µM): 104% and 99.7% and 103% | viability, T/C (compound 0.316 µM): 112% and 103% and 102% | viability, T/C (compound 1 µM): 108% and 109% and 104% | viability, T/C (compound 3.16 µM): 109% and 107% and 104% | viability, T/C (compound 10 µM): 107% and 98% and 91.6% | IC50 (curve of compound): > 10 µM

Cn1ncnc1C1c2n[nH]c(=O)c3cc(F)cc(c23)NC1c1ccc(F)cc1 (centres undefined)
viability, T/C (compound 0.000316 µM): 108% (2×) and 92.5% | viability, T/C (compound 0.001 µM): 104% and 108% and 105% | viability, T/C (compound 0.00316 µM): 110% and 104% and 100% | viability, T/C (compound 0.01 µM): 109% and 104% and 101% | viability, T/C (compound 0.0316 µM): 99.5% and 112% and 97.7% | viability, T/C (compound 0.1 µM): 106% and 108% and 102% | IC50 (curve of compound): > 0.1 µM

CC(C)c1c(-c2ccccc2)nc2c(C#N)c[nH]n2c1=O + CC(CO)NC(=O)c1cc(-c2ccc(Cl)cc2)nn(-c2cnn(C)c2)c1=O
IC50 [1]: > 10 µM | IC50 [2]: > 10 µM | IC50 [3]: > 10 µM | IC50 [4]: > 10 µM | IC50 [5]: > 10 µM | viability, T/C [6]: 98% | viability, T/C [7]: 95.9% | viability, T/C [8]: 104% | viability, T/C [9]: 106% | viability, T/C [10]: 93.7% | viability, T/C [11]: 104% | viability, T/C [12]: 95% | viability, T/C [13]: 101% | viability, T/C [14]: 93.2% | viability, T/C [15]: 95.1% | viability, T/C [16]: 92.3% | viability, T/C [17]: 90% | viability, T/C [18]: 99.9% | viability, T/C [19]: 99.1% | viability, T/C [20]: 105% | viability, T/C [21]: 104% | viability, T/C [22]: 107% | viability, T/C [23]: 96.2% | viability, T/C [24]: 100% | viability, T/C [25]: 96.5% | viability, T/C [26]: 97.9% | viability, T/C [27]: 99.5% | viability, T/C [28]: 106% | viability, T/C [29]: 101% | viability, T/C [30]: 118% | viability, T/C [31]: 105% | viability, T/C [32]: 105% | viability, T/C [33]: 108% | viability, T/C [34]: 103% | viability, T/C [35]: 125%

O=C(C=Cc1cccc(S(=O)(=O)Nc2ccccc2)c1)NO + Cc1cncc(-c2nc(NCCc3c[nH]c4ccccc34)c3ncn(C(C)C)c3n2)c1
IC50 [1]: 7.06 µM | IC50 [2]: 7.68 µM | IC50 [3]: 6.53 µM | IC50 [4]: 1.6 µM | IC50 [5]: < 0.0316 µM | viability, T/C [6]: 120% | viability, T/C [7]: 113% | viability, T/C [8]: 112% | viability, T/C [9]: 119% | viability, T/C [10]: 103% | viability, T/C [11]: 26.5% | viability, T/C [12]: 113% | viability, T/C [13]: 118% | viability, T/C [14]: 113% | viability, T/C [15]: 113% | viability, T/C [16]: 112% | viability, T/C [17]: 31.4% | viability, T/C [18]: 113% | viability, T/C [19]: 111% | viability, T/C [20]: 106% | viability, T/C [21]: 106% | viability, T/C [22]: 96.7% | viability, T/C [23]: 22.4% | viability, T/C [24]: 69.2% | viability, T/C [25]: 68.2% | viability, T/C [26]: 59.4% | viability, T/C [27]: 53.7% | viability, T/C [28]: 45% | viability, T/C [29]: 11.8% | viability, T/C [30]: 13.8% | viability, T/C [31]: 8.02% | viability, T/C [32]: 5.17% | viability, T/C [33]: 0.6% | viability, T/C [34]: 2.92% | viability, T/C [35]: 1.45%
